{"source": "patent US7396529B2", "about": "“Compositions and methods for regulating receptor clustering” (Mount Sinai Hospital, priority 2001, dated 2008)", "key": {"Galectins": {"molecular_target": "Galectins", "settings": "range; 8; read-out: Dissociation constant for galectin binding; cited from earlier work"}, "[1]": {"tested_on": "protein tyrosine phosphorylation in T cells", "assay": "TCR signaling: phosphotyrosine Western blot after anti-CD3ε bead stimulation", "format": "cell-based, mouse", "settings": "for Protein phosphorylation induced by anti-CD3ε antibody coated beads: Mgat5+/+ T cells, disaccharide 1/3 serial dilution from 2.4 mM, 1 min stimulation"}, "EAE": {"tested_on": "EAE", "settings": "injected into mice; cited from earlier work"}, "[2]": {"tested_on": "TCR clustering in wild type (Mgat5+/+) T cells", "assay": "TCR clustering at anti-CD3ε antibody-coated beads after disaccharide pre-incubation", "format": "cell-based, mouse", "settings": "for Enhanced TCR clustering observed (cells with clustering / cells examined): Mgat5+/+ T cells pre-incubated 20 min with 2 mM disaccharide, then anti-CD3ε antibody-coated beads 10 min, stained for TCR; for Effect on TCR clustering at the bead interface: wild type ex vivo T cells, 20 min disaccharide pre-incubation, 10 min anti-CD3ε bead stimulation", "experimental": "TCR clustering: Six-micron polystyrene beads (Polysciences) in PBS were coated with hamster anti-mouse CD3ε antibody (Clone 2C11; Cederlane) at 2 μg/ml antibody followed by coating with 200 μg/ml bovine serum albumin (BSA). To measure TCR clustering, 5×10^4 T cells were incubated with 2.5×10^5 anti-CD3ε antibody-coated beads in 100 μl RPMI 1640+10% FCS at 37° C. for 10 minutes placed on poly-L-lysine coated cover slips. The cells were fixed with 10% formalin, stained with 2 μg/ml fluorescein isothiocyanate (FITC) labeled anti-TCRα/β antibody (Pharmigen), solubilized with 0.2% Triton X-100, labelled with rhodamine-phalloidin and Hoechst, and then visualized by deconvolution microscopy. […] To measure TCR internalization, purified splenic T cells stimulated with either 0.1 μg/ml^−1 anti-CD3 antibody or with 10 ng/ml PMA for varying lengths of time were harvested and stained with FITC-anti-TCRα/β. PMA concentrations were not limiting as 10, 50 and 100 ng/ml produced similar internalization and cell activation results. To measure actin reorganization, purified splenic T cells, stimulated with 0.1 μg/ml^−1 anti-CD3 for varying lengths of time, were fixed with 4% paraformaldehyde for 10 minutes, washed with PBS and stained with rhodamine-phalloidin and mean fluorescence intensity (MFI) was determined by FACS."}, "T cell proliferation": {"tested_on": "T cell proliferation", "settings": "depletion of Mgat5 modified glycans; cited from earlier work"}}, "note": "“Also recorded” adds a separate entry of the source.", "data": [{"compound": "N[C@H]1C(O)O[C@H](CO)[C@@H](O[C@@H]2O[C@H](CO)[C@H](O)[C@H](O)[C@H]2O)[C@@H]1O", "note": "(stereo partly shown) [Lactosamine]", "values": [{"measurement": "Kd", "setting": "Galectins", "value": "~100", "unit": "µM"}, {"measurement": "Protein phosphorylation induced by anti-CD3ε antibody coated beads", "setting": "[1]", "value": "enhanced protein phosphorylation"}]}, {"compound": "OC[C@H]1O[C@H](O[C@H]2[C@H](O)[C@@H](O)[C@H](O)O[C@@H]2CO)[C@H](O)[C@@H](O)[C@@H]1O", "note": "[maltose]", "values": [{"measurement": "Protein phosphorylation induced by anti-CD3ε antibody coated beads", "setting": "[1]", "value": "no effect"}]}, {"compound": "galectin-1: exogenously added beta-galactoside-binding lectin", "values": [{"measurement": "Effect on pathology of EAE", "setting": "EAE", "value": "suppresses the pathology of EAE"}]}, {"compound": "OC[C@H]1O[C@@H](O[C@H]2[C@H](O)[C@@H](O)C(O)O[C@@H]2CO)[C@H](O)[C@@H](O)[C@H]1O", "note": "(stereo partly shown) [lactose]", "values": [{"measurement": "Enhanced TCR clustering observed (cells with clustering / cells examined)", "setting": "[2]", "value": "9/10"}, {"measurement": "Effect on TCR clustering at the bead interface", "setting": "[2]", "value": "increased TCR clustering at the bead interface; also recorded: produced a phenocopy of Mgat5^−/− TCR clustering"}, {"measurement": "Kd", "setting": "Galectins", "value": "~100", "unit": "µM"}, {"measurement": "Protein phosphorylation induced by anti-CD3ε antibody coated beads", "setting": "[1]", "value": "enhanced protein phosphorylation"}, {"measurement": "Signaling in Mgat5−/− T cells", "setting": "[1]; Mgat5−/− T cells, data not shown", "value": "did not enhance signaling"}]}, {"compound": "O[C@H]1[C@H]2[C@H](O)CCCN2C[C@H]1O", "note": "[swainsonine]", "values": [{"measurement": "Effect on antigen-dependent T cell proliferation", "setting": "T cell proliferation", "value": "potentiates antigen-dependent T cell proliferation"}]}, {"compound": "OC[C@H]1O[C@@](CO)(O[C@H]2O[C@H](CO)[C@@H](O)[C@H](O)[C@H]2O)[C@@H](O)[C@@H]1O", "note": "[sucrose]", "values": [{"measurement": "Enhanced TCR clustering observed (cells with clustering / cells examined)", "setting": "[2]", "value": "1/10"}, {"measurement": "Effect on TCR clustering at the bead interface", "setting": "[2]", "value": "not altered"}, {"measurement": "Protein phosphorylation induced by anti-CD3ε antibody coated beads", "setting": "[1]", "value": "no effect"}]}]}
